Assay: XTT cytotoxicity assay according to ISO 10993
Conditions: mouse
Source text: A larger scale batch (100 Liter) of Formulation E was further evaluated in more detail with an XTT test according to ISO 10993, published by the International Organization for Standardization: “Biological Evaluation of Medical Devices”, Part 1: “Evaluation and testing within a risk management process”, 2018, Part 5: “Tests for in vitro cytotoxicity”, 2009 using a valuated method from the ICCR-Roßdorf GmbH (Germany) and a Xenometrix test kit. With the XTT assay, cell proliferation and viability as well as the mitochondrial metabolic competence of the cells after treatment with a test item is determined […]. The XTT test is based on the cleavage of the yellow tetrazolium salt XTT [_(sodium 3′-(1-phenylaminocarbonyl)-(3,4-tetrazolium)-bis-(4-methoxy-6-nitro)-benzenesulfonic acid hydrate)] to form an orange water soluble formazan dye by dehydrogenase activity in active mitochondria. This method was first described 1988 by SCUDIERO et al.
In brief, the potential cytotoxic effect was evaluated with a dilution series of formulation E in complete medium [RPMI 1640 medium (including glutamax), supplemented with 10% FCS, 1 mM sodium pyruvate, and 100 units/mL penicillin, and 100 μg/mL streptomycin] resulting in the following end concentrations 39.1 μg/mL, 78.1 μg/mL, 156 μg/mL, 313 μg/mL, 625 μg/mL, 1250 μg/mL; 2500 μg/mL, 5000 μg/mL. Subsequently the effect of the solution was examined after 24±1 h treatment time on prior prepared mouse L929 cell line (supplied by DSMZ, 38124 Braunschweig, Germany). In parallel several controls were tested as well:
Medium Control=Complete medium; Solvent control=Complete medium, Positive control=Sodium dodecyl sulfate (SDS; purity: ≥99%); Solvent=deionized water, diluted with complete medium to a ratio of 1:10 (v/v). The positive control was tested in 8 concentrations in a range from 3.1-250 μg/mL. Solvent control for the positive control=Complete medium and 10% (v/v) deionized water.
At the end of the incubation period, 50 μL of the XTT labelling mixture (Xenometrix, Allschwil, Switzerland) were added to each well. The cells were incubated and subsequently transferred to a microplate reader and the absorbance values were determined (Versamax® Molecular Devices, software SoftMax Pro Enterprise (version 4.7.1)) at 450 nm (reference wavelength 690 nm). A decrease in number of living cells results in a decrease in the overall activity of mitochondrial dehydrogenases in the sample. This decrease directly correlates to the amount of orange formazan formed, as monitored by the absorbance. The relative absorbance (=viability) as compared to the solvent control is calculated using this formula: […]
To calculate the concentration of toxicant required to reduce the relative absorbance to 50% of the solvent control (XTT50) the following formula is used:
[formula] • a) Conc.>50=max. measured concentration with the % of solvent control >50% • b) Conc.<50=min. measured concentration with the % of solvent control <50% • c) %>50=relative absorbance at a) in % • d) %<50=relative absorbance at b) in %
The lower the XTT50 value, the higher is the cytotoxic potential of the test item.

Structure (SMILES): CCCCCCCCCCCCOS(=O)(=O)[O-].[Na+] [SDS, Sodium dodecyl sulfate]
- viability at 3.1 μg/mL: 96.9%
- viability at 6.3 μg/mL: 97.2%
- viability at 12.5 μg/mL: 99.9%
- viability at 25 μg/mL: 91.7%
- viability at 50 μg/mL: 85%
- viability at 100 μg/mL: 5.8%
- viability at 125 μg/mL: 1.63%
- viability at 250 μg/mL: 0.16%
